Test results as given in patent publication US6958145B2, “Synthesis of cyclic compounds” (Unisearch Limited, priority 2000, dated 2005).

How the values were obtained:
[1] = test system: two-component signal transduction; test: Taz-1 assay, two-component signal transduction; type: cell-based, E. coli; conditions: beta-galactosidase readout
Experimental: The Taz-assay carried out according to the method of Jin and Inouye (1993) with the following alterations. E. coli RU1012 (pYT0301) were grown overnight in M9 medium at 37° C. supplemented with 100 ug/ml ampicillin and 50 ug/ml kanamycin. This overnight culture was then used to inoculate 50 ml M9 medium in side-arm flasks which were then incubated at 37° C. and shaken at 180 rpm. The OD610 of the growing cultures was monitored regularly and when the OD610=0.2 the cultures were placed on ice. Aspartate was added to side-arm flasks to give a final concentration of 3 mM (aspartate stock solution made up in M9 salts).
The test compound or mixtures of compounds were dissolved in ethanol and added to cultures to give the required final concentrations. Negative controls were prepared with equal volumes of ethanol. Cultures were then placed in a 37° C. incubator and shaken for 4 hours (OD610 approximately 0.7) before being removed and put on ice. Samples were then removed for […]eta-galactosidase assays carried out according to the method of Miller (1972).

AI-2 activity = test: V. harveyi bioassay for the detection of AI-2 activity; type: cell-based; conditions: V. harveyi BB170 luminescence
Experimental: The V. harveyi bioassay was performed as described previously (Surette and Bassler, 1998). The V. harveyi reporter strain BB170 was grown for 16 hours at 30° C. with shaking in AB medium. Cells were diluted 1:5,000 into 30° C. prewarmed AB medium and 90 ul of the diluted suspension was added to wells containing supernatant. Furanones were added to the wells to achieve the desired final concentrations and the final volume in each well was adjusted with sterile medium to 100 ul. Ten ul of V. harveyi BB152 (AI-1−, AI-2+) supernatant was used as a positive control and 10 ul of E. coli DH5α supernatant or sterile media was used as a negative control. […] The microtiter plates were incubated at 30° C. with shaking at 175 rpm. Hourly determinations of the total luminescence were quantified using the chemiluminescent setting on a Wallac (Gaithersburg, Md.) model 1450 Microbeta Plus liquid scintillation counter. The V. harveyi cell density was monitored by the use of a microplate reader (Bio-Rad, Hercules, Calif.). Activity is reported as the percentage of activity obtained from V. harveyi BB152 cell-free supernatant. While the absolute values of luminescence varied considerably between experiments, the pattern of results obtained was reproducible.

[2] = test system: AHL mediated quorum sensing

SMILES | 2 component (two-component signal transduction assay) [1] | AI-2 (AI-2 activity) (AI-2 activity) [% reduction] | AHL (inhibitor of AHL-mediated quorum sensing) [2]
CC1=CC(=C(Br)Br)OC1=O [compound 64] | No effect | 80 | good
CC1=CC(=O)OC1(Br)C(Br)Br (stereo not shown) [compound 72] |  | 97 | 
